Results: patent US20060004002A1 (priority 2004, published 2006)
pIC50: −log10 of the molar value.

Target: T1, Recombinant human Src (Homo sapiens, UniProt P12931)
T1 construct: made in house; host or cells: baculovirus-insect cell system
Assay: Src tyrosine kinase activity assay with poly E4Y and 32P-ATP
Format: biochemical
Details: poly E4Y, 32P-ATP; NI = no inhibition; read-out: IC50 Value Src
Protocol: Recombinant human Src was expressed using the baculovirus-insect cell system and purified as published (Budde et al., 1993 and 2000). Recombinant Csk and the FGF receptor (FGFr) were expressed as […] fusion proteins using the pGEX expression vector and E. coli, and purified as described (Sun & Budde, 1995).
The tyrosine kinase activity of Src, Csk and FGFr was determined using poly E4Y and ^32P-ATP. Briefly, enzymes were assayed in a reaction mixture […] consisting of 0.15 M EPPS-NaOH (pH 8.0) with 6 mM MgCl2, 0.2 mM γ^32P-ATP (0.2-0.4 mCi/μmol), 10% glycerol, 0.1% Triton X-100, and poly E4Y. Poly E4Y is a synthetic peptide whose phosphorylation is measured in this assay by the addition of the radioactively labeled phosphate from the ATP (Budde et al., 1995). […] When ATP was varied (0, 50, 100 and 250 μM), poly E4Y was kept constant at 150 μg/ml.

T1 sequence (P12931 whole entry): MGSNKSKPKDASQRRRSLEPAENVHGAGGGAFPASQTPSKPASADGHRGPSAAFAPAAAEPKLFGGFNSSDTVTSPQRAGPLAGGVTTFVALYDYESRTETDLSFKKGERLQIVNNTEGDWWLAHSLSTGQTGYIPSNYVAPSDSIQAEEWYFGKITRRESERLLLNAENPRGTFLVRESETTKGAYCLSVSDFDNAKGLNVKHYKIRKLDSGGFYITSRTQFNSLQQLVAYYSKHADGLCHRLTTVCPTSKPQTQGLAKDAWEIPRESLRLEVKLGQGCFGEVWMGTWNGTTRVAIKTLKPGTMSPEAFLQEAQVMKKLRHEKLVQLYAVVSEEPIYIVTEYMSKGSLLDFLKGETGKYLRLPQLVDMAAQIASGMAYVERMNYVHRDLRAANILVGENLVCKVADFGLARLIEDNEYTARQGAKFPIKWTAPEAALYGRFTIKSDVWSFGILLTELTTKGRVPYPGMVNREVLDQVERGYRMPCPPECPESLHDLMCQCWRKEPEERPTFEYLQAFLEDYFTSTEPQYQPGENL

Row | Compound | pIC50
1 | CCOc1cc(F)ccc1-c1sc2c(NN=Cc3cc(OC)c(OCCN(CC)CC)c(OC)c3)ncnc2c1C [Compound 160, 4-(2-Diethylamino-ethoxy)-3,5-dimethoxy-benzaldehyde (6-(2-ethoxy-4-fluorophenyl)-7-methylthieno[3,2-d]pyrimidin-4-yl)hydrazone] | 9.52
2 | Cc1nc[nH]c1C=NNc1ncnc2c(C)c(CN3CCOCC3)sc12 [Compound 16, 4-Methyl-5-imidazolecarboxaldehyde (7-methyl-6-(morpholin-4-yl)methyllthieno[3,2-d]pyrimidin-4-yl)hydrazone] | 6.21
3 | COc1ccc(C=NNc2ncnc3c(C)c(CNc4ccccc4)sc23)cc1O [Compound 18] | 6.26
4 | CCOc1ccccc1-c1sc2c(NN=Cc3cc(OC)c(O)c(OC)c3)ncnc2c1C#N [compound 94] | 9.47
5 | CCOc1cc(F)ccc1-c1sc2c(NN=Cc3cccs3)ncnc2c1C [Compound 106, 2-Thiophenecarboxaldehyde (6-(2-ethoxy-4-fluorophenyl)-7-methythieno[3,2-d]pyrimidin-4-yl)hydrazone] | 8.02
6 | Cc1c(-c2ccc(N)cc2)sc2c(NN=Cc3cccs3)ncnc12 [Compound 9, 2-Thiophenecarboxaldehyde (6-(4-aminophenyl)-7-methylthieno[3,2-d]pyrimidin-4-yl)hydrazone] | 7.72
7 | Cc1c(-c2cccc(C(N)=O)c2)sc2c(NN=Cc3cccs3)ncnc12 [Compound 20, 2-Thiophenecarboxaldehyde (6-(3-aminocarbonylphenyl)-7-methylthieno[3,2-d]pyrimidin-4-yl)hydrazone] | 7.27
8 | CCOc1ccccc1-c1sc2c(NN=Cc3ccc(OC)c(O)c3)ncnc2c1C#N [compound 47] | 8.82
9 | Cc1c(-c2ccc(C(N)=O)cc2)sc2c(NN=Cc3cccs3)ncnc12 [Compound 25, 2-Thiophenecarboxaldehyde (6-(4-aminocarbonylphenyl)-7-methylthieno[3,2-d]pyrimidin-4-yl)hydrazone] | 7.59
10 | COc1ccc(C=NNc2ncnc3c(C)c(-c4ccc(CN)cc4)sc23)cc1O [Compound 5, 3-Hydroxy-4-methoxybenzaldehyde (6-(4-aminomethyl)phenyl-7-methylthieno[3,2-d]pyrimidin-4-yl)hydrazone] | 7.49
11 | CCOc1cc(F)ccc1-c1sc2c(NN=Cc3cc(OC)c(OCCN(CC)CC)c(OC)c3)ncnc2c1O [Compound 159, 4-(2-Diethylamino-ethoxy)-3,5-dimethoxy-benzaldehyde (6-(2-ethoxy-4-fluorophenyl)-7-hydroxythieno[3,2-d]pyrimidin-4-yl)hydrazone] | 9.25
12 | CCOc1ccccc1-c1sc2c(NN=Cc3c[nH]c(=O)[nH]c3=O)ncnc2c1O [Compound 113, 2,4-Dioxo-1,2,3,4-tetrahydro-pyrimidine-5-carbaldehyde (6-(2-ethoxyphenyl)-7-hydroxythieno[3,2-d]pyrimidin-4-yl)hydrazone] | 7.55
13 | CCOc1ccccc1-c1sc2c(NN=Cc3[nH]cnc3C)ncnc2c1C#N [compound 115] | 8.59
14 | CCOc1ccccc1-c1sc2c(NN=Cc3ccc(O)c(OC)c3)ncnc2c1C [Compound 55] | 8.48
15 | CCOc1ccccc1-c1sc2c(NN=Cc3ncc[nH]3)ncnc2c1C#N [compound 95] | 7.60
16 | Cc1c(-c2cccc(C#N)c2)sc2c(NN=Cc3ccc(C(=O)O)cc3)ncnc12 [Compound 30, 4-Carboxybenzaldehyde (6-(3-cyanophenyl)-7-methylthieno[3,2-d]pyrimidin-4-yl)hydrazone] | 6.80
17 | Cc1c(-c2ccc(C(N)=O)cc2)sc2c(NN=Cc3ccc(C(=O)O)cc3)ncnc12 [Compound 26, 4-Carboxybenzaldehyde (6-(4-aminocarbonylphenyl)-7-methylthieno[3,2-d]pyrimidin-4-yl)hydrazone] | 7.44
18 | COc1ccc(C=NNc2ncnc3c(C)c(-c4ccc(C(N)=O)cc4)sc23)cc1O [Compound 23, 3-Hydroxy-4-methoxybenzaldehyde (6-(4-aminocarbonylphenyl)-7-methylthieno[3,2-d]pyrimidin-4-yl)hydrazone] | 7.70
19 | Cc1c(CN2CCOCC2)sc2c(NN=Cc3cccnc3)ncnc12 [Compound 15, 3-Pyridinecarboxaldehyde (7-methyl-6-(morpholin-4-yl)methyllthieno[3,2-d]pyrimidin-4-yl)hydrazone] | 6.49
20 | CCOc1ccccc1-c1sc2c(NN=Cc3sccc3C)ncnc2c1C#N [compound 122] | 8.28
21 | CCOc1cc(F)ccc1-c1sc2c(NN=Cc3cccs3)ncnc2c1O [Compound 109, 2-Thiophenecarboxaldehyde (6-(2-ethoxy-4-fluorophenyl)-7-hydroxythieno[3,2-d]pyrimidin-4-yl)hydrazone] | 8.96

Now from value to compound:

Row | pIC50 | Compound
22 | 6.89 | CCOc1ccccc1-c1sc2c(NN=Cc3ccc(N(C)C)cc3)ncnc2c1C#N [compound 131]
23 | 8.72 | CCOc1ccccc1-c1sc2c(NN=Cc3ccncc3)ncnc2c1C#N [compound 110]
24 | 8.89 | CCOc1ccccc1-c1sc2c(NN=Cc3cc(OC)c(OC)c(OC)c3)ncnc2c1C [Compound 63, 3,4,5-Trimethoxybenzaldehyde (6-(2-ethoxyphenyl)-7-methylthieno[3,2-d]pyrimidin-4-yl)hydrazone]
25 | 7.26 | CCOc1ccccc1-c1sc2c(NN=Cc3ncc[nH]3)ncnc2c1O [Compound 97, 2-Imidazolecarboxaldehyde (6-(2-ethoxyphenyl)-7-hydroxythieno[3,2-d]pyrimidin-4-yl)hydrazone]
26 | 8.33 | CCOc1ccccc1-c1sc2c(NN=Cc3cccc(F)c3)ncnc2c1C#N [Compound 139, 3-Fluorobenzaldehyde (7-cyano-6-(2-ethoxyphenyl)thieno[3,2-d]pyrimidin-4-yl)hydrazone]
27 | 8.02 | Cc1c(-c2ccc(N)cc2)sc2c(NN=Cc3cccnc3)ncnc12 [Compound 8, 3-Pyridinecarboxaldehyde (6-(4-aminophenyl)-7-methylthieno[3,2-d]pyrimidin-4-yl)hydrazone]
28 | 6.60 | CCOc1ccccc1-c1sc2c(NN=Cc3ccc(OC)cc3OC)ncnc2c1C [Compound 79, 2,4-Dimethoxybenzaldehyde (6-(2-ethoxyphenyl)-7-methylthieno[3,2-d]pyrimidin-4-yl)hydrazone]
29 | 8.21 | CCOc1ccccc1-c1sc2c(NN=Cc3ccc(N(C)C)cc3)ncnc2c1O [Compound 133, 4-N,N-Dimethylaminobenzaldehyde (6-(2-ethoxyphenyl)-7-hydroxythieno[3,2-d]pyrimidin-4-yl)hydrazone]
30 | 8.34 | CCOc1ccccc1-c1sc2c(NN=Cc3ccc(OC)c(OC)c3)ncnc2c1C [Compound 53, 3,4-Dimethoxybenzaldehyde (6-(2-ethoxyphenyl)-7-methylthieno[3,2-d]pyrimidin-4-yl)hydrazone]
31 | 8.82 | CCOc1ccccc1-c1sc2c(NN=Cc3ccc(O)cc3)ncnc2c1C#N [compound 102]
32 | 5.41 | Cc1c(-c2ccccc2OCc2ccccc2)sc2c(NN=Cc3cccnc3)ncnc12 [Compound 82, 3-Pyridinecarboxaldehyde (6-(2-benzyloxyphenyl)-7-methylthieno[3,2-d]pyrimidin-4-yl)hydrazone]
33 | 8.31 | CCOc1ccccc1-c1sc2c(NN=Cc3ccc(C)s3)ncnc2c1C#N [compound 126]
34 | 8.92 | CCOc1ccccc1-c1sc2c(NN=Cc3cc(O)c(OC)c(OC)c3)ncnc2c1C [Compound 64, 3,4-Dimethoxy-5-hydroxybenzaldehyde (6-(2-ethoxyphenyl)-7-methylthieno[3,2-d]pyrimidin-4-yl)hydrazone]
35 | 7.04 | Cc1c(-c2cccc(C(N)=O)c2)sc2c(NN=Cc3cccnc3)ncnc12 [Compound 21, 3-Pyridinecarboxaldehyde (6-(3-aminocarbonylphenyl)-7-methylthieno[3,2-d]pyrimidin-4-yl)hydrazone]
36 | 8.49 | CCOc1ccccc1-c1sc2c(NN=Cc3cccc(C(=O)O)c3)ncnc2c1C#N [compound 114]
37 | 7.68 | Cc1c(-c2ccc(O)cc2)sc2c(NN=Cc3cccnc3)ncnc12 [Compound 75, 3-Pyridinecarboxaldehyde (6-(4-hydroxyphenyl)-7-methylthieno[3,2-d]pyrimidin-4-yl]hydrazone]
38 | 9.24 | CCOc1ccccc1-c1sc2c(NN=Cc3ccsc3)ncnc2c1C#N [compound 91]
39 | 7.54 | CCCOc1ccccc1-c1sc2c(NN=Cc3ccc(OC)c(O)c3)ncnc2c1C [Compound 83, 3-Hydroxy-4-methoxybenzaldehyde (7-methyl-6-(2-propoxyphenyl)thieno[3,2-d]pyrimidin-4-yl)hydrazone]
40 | 7.49 | CCOc1ccccc1-c1sc2c(NN=Cc3ccc(C(=O)O)cc3)ncnc2c1CO [Compound 72, 4-Carboxybenzaldehyde (6-(2-ethoxyphenyl)-7-hydroxymethylthieno[3,2-d]pyrimidin-4-yl)hydrazone]
41 | 8.55 | CCOc1ccccc1-c1sc2c(NN=Cc3ccsc3)ncnc2c1O [Compound 93, 3-Thiophenecarboxaldehyde (6-(2-ethoxyphenyl)-7-hydroxythieno[3,2-d]pyrimidin-4-yl)hydrazone]
42 | 8.62 | CCOc1ccccc1-c1sc2c(NN=Cc3ccc(NC(C)=O)cc3)ncnc2c1O [Compound 132, 4-Acetamidobenzaldehyde (6-(2-ethoxyphenyl)-7-hydroxythieno[3,2-d]pyrimidin-4-yl)hydrazone]
43 | 8.31 | Cc1c(-c2cccc(N)c2)sc2c(NN=Cc3cccnc3)ncnc12 [Compound 11, 3-Pyridinecarboxaldehyde (6-(3-aminophenyl)-7-methylthieno[3,2-d]pyrimidin-4-yl)hydrazone]
